system: IL-17A gene expression; test: Effect on IL-23-induced cytokine expression in mice; type: in vivo, Balb/c mice; details: Mus musculus, 24 h; 10 mg/kg oral, 30 min before and 8 hr after IL-23; ear tissue; versus the negative control group; read-out: percent inhibition of IL-17A gene expression
Experimental: Effect on IL-23-Induced Cytokine Expression in Mice
A mouse IL-23 solution (500 ng/10 μL, prepared by Takeda Pharmaceutical Company Limited) or PBS (10 μL, negative control group) was administered intradermally in the ear of Balb/c mice (Charles River Japan, male, 7 weeks old). Twenty-four hr after administration, the ear was resected under isoflurane anesthesia. The test compound was suspended in 0.5% methylcellulose and administered orally 30 min before and 8 hr after IL-23 administration.
RNA extraction from the ear tissue and quantitative PCR were performed as follows. Specifically, ear tissue 5 mm in diameter was punched from an area of the resected ear centering on the IL-23 injection site, and the tissue was immersed in RNAlater (QIAGEN) for at least 18 hr. The RNAlater-treated ear tissue was homogenized in 350 μL of RLT buffer (RNeasy mini kit, QIAGEN) and treated (55° C., 10 min) with Proteinase K (QIAGEN). Total RNA was then extracted according to the RNeasy mini kit protocol. The RNA thus obtained was then reverse transcribed into cDNA using the High-Capacity RNA-to-cDNA kit (Applied Biosystems), and the amount of each gene expressions was measured by real-time PCR (Viia7™, Applied Biosystems). The PCR buffer used was TaqMan Fast Advanced Master Mix (Applied Biosystems), and TaqMan Gene Expression Assays (Applied Biosystems) Mm00439618_m1 (IL-17A) and 4352341E (β-actin) were used for each gene detection. The IL-17A gene expression level was normalized to the β-actin gene expression level, and the percent inhibition of IL-17A gene expression with the test compound was then calculated.
The results (percent inhibition of IL-17A gene expression with oral administration of the test compound) measured by the above-mentioned method are shown in Table 9.

Compared with `COc1ccc2c(c1)CCN(C(=O)C1CC(CC(=O)O)C1)[C@H]2C(=O)Nc1cc(F)c([Si](C)(C)C)c(F)c1` (stereo partly drawn) [Example 4, (3-(((1R)-1-((3,5-difluoro-4-(trimethylsilyl)phenyl)carbamoyl)-6-methoxy-3,4-dihydroisoquinolin-2(1H)-yl)carbonyl)cyclobutyl)acetic acid], `COc1ccc2c(c1)CCN(C(=O)[C@H]1C[C@@H](CC(=O)O)C1)[C@H]2C(=O)Nc1cc(F)c([Si](C)(C)C)c(F)c1` [Example 25, (cis-3-(((1R)-1-((3,5-difluoro-4-(trimethylsilyl)phenyl)carbamoyl)-6-methoxy-3,4-dihydroisoquinolin-2(1H)-yl)carbonyl)cyclobutyl)acetic acid] is higher in inhibition in vivo at 10 mg/kg: 86% for the first, 92% for the second.

First: COc1ccc2c(c1)CCN(C(=O)[C@H]1C[C@@H](C(=O)O)C1)[C@H]2C(=O)Nc1cc(F)c([Si](C)(C)C)c(F)c1 [Example 5, cis-3-(((1R)-1-((3,5-difluoro-4-(trimethylsilyl)phenyl)carbamoyl)-6-methoxy-3,4-dihydroisoquinolin-2(1H)-yl)carbonyl)cyclobutanecarboxylic acid]
Second: CCOc1ccc2c(c1)CCN(C(=O)[C@H]1C[C@@H](C(=O)O)C1)[C@H]2C(=O)Nc1cc(F)c([Si](C)(C)C)c(F)c1 [Example 8, cis-3-(((1R)-1-((3,5-difluoro-4-(trimethylsilyl)phenyl)carbamoyl)-6-ethoxy-3,4-dihydroisoquinolin-2(1H)-yl)carbonyl)cyclobutanecarboxylic acid]
The inhibition in vivo at 10 mg/kg of the first is lower: 57% for the first, 72% for the second.

First: COc1ccc2c(n1)CCN(C(=O)[C@H]1C[C@@H]1CC(=O)O)[C@H]2C(=O)Nc1cc(F)c2c(c1)CCC2(C)C [Example 6, ((1R,2S)-2-(((5R)-5-((7-fluoro-1,1-dimethyl-2,3-dihydro-1H-inden-5-yl)carbamoyl)-2-methoxy-7,8-dihydro-1,6-naphthyridin-6(5H)-yl)carbonyl)cyclopropyl)acetic acid]
Second: COc1ccc2c(n1)CCN(C(=O)[C@H]1C[C@H](CC(=O)O)C1)[C@H]2C(=O)Nc1cc(F)c2c(c1)CCC2(C)C [Example 20, (trans-3-(((5R)-5-((7-fluoro-1,1-dimethyl-2,3-dihydro-1H-inden-5-yl)carbamoyl)-2-methoxy-7,8-dihydro-1,6-naphthyridin-6(5H)-yl)carbonyl)cyclobutyl)acetic acid]
The inhibition in vivo at 10 mg/kg of the first is lower: 95% for the first, 99% for the second.

Going from `CCOc1ccc2c(c1)CCN(C(=O)[C@H]1C[C@H](C(=O)O)C1)[C@H]2C(=O)Nc1cc(F)c([Si](C)(C)C)c(F)c1` [Example 9, trans-3-(((1R)-1-((3,5-difluoro-4-(trimethylsilyl)phenyl)carbamoyl)-6-ethoxy-3,4-dihydroisoquinolin-2(1H)-yl)carbonyl)cyclobutanecarboxylic acid] to `COc1ccc2c(c1)CCN(C(=O)[C@H]1C[C@@H]1CC(=O)O)[C@H]2C(=O)Nc1cc(F)c([Si](C)(C)C)c(F)c1` [Example 29, ((1R,2S)-2-(((1R)-1-((3,5-difluoro-4-(trimethylsilyl)phenyl)carbamoyl)-6-methoxy-3,4-dihydroisoquinolin-2(1H)-yl)carbonyl)cyclopropyl)acetic acid], the inhibition in vivo at 10 mg/kg rises from 57% to 73%.

Going from `COc1ccc2c(n1)CCN(C(=O)[C@H]1C[C@@H]1CC(=O)O)[C@H]2C(=O)Nc1cc(F)c([Si](C)(C)C)c(F)c1` [Example 13, ((1R,2S)-2-(((5R)-5-((3,5-difluoro-4-(trimethylsilyl)phenyl)carbamoyl)-2-methoxy-7,8-dihydro-1,6-naphthyridin-6(5H)-yl)carbonyl)cyclopropyl)acetic acid] to `COc1ccc2c(n1)CCN(C(=O)[C@H]1C[C@@H](CC(=O)O)C1)[C@H]2C(=O)Nc1cc(F)c([Si](C)(C)C)c(F)c1` [Example 23, (cis-3-(((5R)-5-((3,5-difluoro-4-(trimethylsilyl)phenyl)carbamoyl)-2-methoxy-7,8-dihydro-1,6-naphthyridin-6(5H)-yl)carbonyl)cyclobutyl)acetic acid], the inhibition in vivo at 10 mg/kg rises from 91% to 96%.

Compared with `CCOCC(C)(C)c1c(F)cc(NC(=O)[C@H]2c3ccc(OCC)cc3CCN2C(=O)[C@H]2C[C@@H](CC(=O)O)C2)cc1F` [Example 18, (cis-3-(((1R)-6-ethoxy-1-((4-(1-ethoxy-2-methylpropan-2-yl)-3,5-difluorophenyl)carbamoyl)-3,4-dihydroisoquinolin-2(1H)-yl)carbonyl)cyclobutyl)acetic acid], `COc1ccc2c(c1)CCN(C(=O)[C@H]1C[C@@H](CC(=O)O)C1)[C@H]2C(=O)Nc1ccc([Si](C)(C)C)c(F)c1` [Example 33, (cis-3-(((1R)-1-((3-fluoro-4-(trimethylsilyl)phenyl)carbamoyl)-6-methoxy-3,4-dihydroisoquinolin-2(1H)-yl)carbonyl)cyclobutyl)acetic acid] is higher in inhibition in vivo at 10 mg/kg: 72% for the first, 94% for the second.

First: COCc1ccc2c(c1)CCN(C(=O)[C@H]1C[C@@H](CC(=O)O)C1)[C@H]2C(=O)Nc1cc(F)c2c(c1)CCC2(C)C [Example 19, (cis-3-(((1R)-1-((7-fluoro-1,1-dimethyl-2,3-dihydro-1H-inden-5-yl)carbamoyl)-6-(methoxymethyl)-3,4-dihydroisoquinolin-2(1H)-yl)carbonyl)cyclobutyl)acetic acid]
Second: COCc1ccc2c(c1)CCN(C(=O)[C@H]1C[C@H](CC(=O)O)C1)[C@H]2C(=O)Nc1cc(F)c2c(c1)CCC2(C)C [Example 24, (trans-3-(((1R)-1-((7-fluoro-1,1-dimethyl-2,3-dihydro-1H-inden-5-yl)carbamoyl)-6-(methoxymethyl)-3,4-dihydroisoquinolin-2(1H)-yl)carbonyl)cyclobutyl)acetic acid]
The inhibition in vivo at 10 mg/kg of the first is higher: 90% for the first, 74% for the second.

Compared with `COc1ccc2c(n1)CCN(C(=O)[C@H]1C[C@H](CC(=O)O)C1)[C@H]2C(=O)Nc1cc(F)c([Si](C)(C)C)c(F)c1` [Example 28, (trans-3-(((5R)-5-((3,5-difluoro-4-(trimethylsilyl)phenyl)carbamoyl)-2-methoxy-7,8-dihydro-1,6-naphthyridin-6(5H)-yl)carbonyl)cyclobutyl)acetic acid], `COc1ccc2c(n1)CCN(C(=O)[C@H]1C[C@@H](C(=O)O)C1)[C@H]2C(=O)Nc1cc(F)c([Si](C)(C)C)c(F)c1` [Example 31, cis-3-(((5R)-5-((3,5-difluoro-4-(trimethylsilyl)phenyl)carbamoyl)-2-methoxy-7,8-dihydro-1,6-naphthyridin-6(5H)-yl)carbonyl)cyclobutanecarboxylic acid] is lower in inhibition in vivo at 10 mg/kg: 91% for the first, 85% for the second.

Compared with `COc1ccc2c(c1)CCN(C(=O)[C@H]1C[C@@H](C(=O)O)C1)[C@H]2C(=O)Nc1ccc([Si](C)(C)C)c(F)c1` [Example 32, cis-3-(((1R)-1-((3-fluoro-4-(trimethylsilyl)phenyl)carbamoyl)-6-methoxy-3,4-dihydroisoquinolin-2(1H)-yl)carbonyl)cyclobutanecarboxylic acid], `COc1ccc2c(n1)CCN(C(=O)[C@H]1C[C@@H](C(=O)OCc3ccccc3)C1)[C@H]2C(=O)Nc1cc(F)c2c(c1)CCC2(C)C` [Example 36, benzyl cis-3-(((5R)-5-((7-fluoro-1,1-dimethyl-2,3-dihydro-1H-inden-5-yl)carbamoyl)-2-methoxy-7,8-dihydro-1,6-naphthyridin-6(5H)-yl)carbonyl)cyclobutanecarboxylate] is lower in inhibition in vivo at 10 mg/kg: 83% for the first, 78% for the second.

Reference: US9365520B2, “Heterocyclic compound” (Takeda Pharmaceutical Company Limited, priority 2014, dated 2016)
